{"source": "PubChem BioAssay (NCI)", "test_in_all_cases": "NCI-60 cell line screen, 48 h", "key": {"HOP-62 NSCLC": {"tested_on": "HOP-62 NSCLC"}, "SK-MEL-5 melanoma": {"tested_on": "SK-MEL-5 melanoma"}, "MCF7 breast": {"tested_on": "MCF7 breast"}, "SW-620 colon": {"tested_on": "SW-620 colon"}, "BT-549 breast": {"tested_on": "BT-549 breast"}, "OVCAR-8 ovarian": {"tested_on": "OVCAR-8 ovarian"}, "IGROV1 ovarian": {"tested_on": "IGROV1 ovarian"}, "OVCAR-4 ovarian": {"tested_on": "OVCAR-4 ovarian"}, "CAKI-1 renal": {"tested_on": "CAKI-1 renal"}, "TK-10 renal": {"tested_on": "TK-10 renal"}, "HT29 colon": {"tested_on": "HT29 colon"}, "SK-OV-3 ovarian": {"tested_on": "SK-OV-3 ovarian"}, "SK-MEL-28 melanoma": {"tested_on": "SK-MEL-28 melanoma"}, "NCI-H23 lung": {"tested_on": "NCI-H23 lung"}, "UACC-257 melanoma": {"tested_on": "UACC-257 melanoma"}, "MOLT-4 leukemia": {"tested_on": "MOLT-4 leukemia"}, "DU-145 prostate": {"tested_on": "DU-145 prostate"}, "K-562 leukemia": {"tested_on": "K-562 leukemia"}, "OVCAR-3 ovarian": {"tested_on": "OVCAR-3 ovarian"}, "SR leukemia": {"tested_on": "SR leukemia"}}, "note": "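Cells were grown in 96-well plates and exposed to each compound for 48 hours at five concentrations; endpoints were interpolated linearly between bracketing concentrations, or set to the highest concentration if not reached. At the TGI there is no net growth.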"}
{"compound": "O=C1N(Cc2ccccc2)C2CSCC2N1Cc1ccccc1", "note": "(stereo not given)", "values": [{"measurement": "TGI", "setting": "HOP-62 NSCLC", "value": 58.3, "unit": "µM"}, {"measurement": "TGI", "setting": "SK-MEL-5 melanoma", "value": 30.3, "unit": "µM"}, {"measurement": "TGI", "setting": "MCF7 breast", "value": "> 100", "unit": "µM"}, {"measurement": "TGI", "setting": "SW-620 colon", "value": "> 100", "unit": "µM"}, {"measurement": "TGI", "setting": "BT-549 breast", "value": 53.5, "unit": "µM"}, {"measurement": "TGI", "setting": "OVCAR-8 ovarian", "value": "> 100", "unit": "µM"}, {"measurement": "TGI", "setting": "IGROV1 ovarian", "value": "> 100", "unit": "µM"}, {"measurement": "TGI", "setting": "OVCAR-4 ovarian", "value": "> 100", "unit": "µM"}, {"measurement": "TGI", "setting": "CAKI-1 renal", "value": "> 100", "unit": "µM"}, {"measurement": "TGI", "setting": "TK-10 renal", "value": 85.9, "unit": "µM"}, {"measurement": "TGI", "setting": "HT29 colon", "value": 38.1, "unit": "µM"}, {"measurement": "TGI", "setting": "SK-OV-3 ovarian", "value": "> 100", "unit": "µM"}, {"measurement": "TGI", "setting": "SK-MEL-28 melanoma", "value": "> 100", "unit": "µM"}, {"measurement": "TGI", "setting": "NCI-H23 lung", "value": 85, "unit": "µM"}, {"measurement": "TGI", "setting": "UACC-257 melanoma", "value": 69.3, "unit": "µM"}, {"measurement": "TGI", "setting": "MOLT-4 leukemia", "value": 97, "unit": "µM"}, {"measurement": "TGI", "setting": "DU-145 prostate", "value": "> 100", "unit": "µM"}, {"measurement": "TGI", "setting": "K-562 leukemia", "value": "> 100", "unit": "µM"}, {"measurement": "TGI", "setting": "OVCAR-3 ovarian", "value": 43.9, "unit": "µM"}, {"measurement": "TGI", "setting": "SR leukemia", "value": 93.6, "unit": "µM"}]}
{"compound": "C[C@@H]1CC[C@H]2[C@H]1[C@H]1[C@@H](CC[C@]2(C)N=C=S)C1(C)C", "values": [{"measurement": "TGI", "setting": "HOP-62 NSCLC", "value": "> 100", "unit": "µM"}, {"measurement": "TGI", "setting": "SK-MEL-5 melanoma", "value": 31.8, "unit": "µM"}, {"measurement": "TGI", "setting": "MCF7 breast", "value": 34, "unit": "µM"}, {"measurement": "TGI", "setting": "SW-620 colon", "value": 36, "unit": "µM"}, {"measurement": "TGI", "setting": "BT-549 breast", "value": 39.1, "unit": "µM"}, {"measurement": "TGI", "setting": "OVCAR-8 ovarian", "value": "> 100", "unit": "µM"}, {"measurement": "TGI", "setting": "IGROV1 ovarian", "value": "> 100", "unit": "µM"}, {"measurement": "TGI", "setting": "OVCAR-4 ovarian", "value": "> 100", "unit": "µM"}, {"measurement": "TGI", "setting": "CAKI-1 renal", "value": 92.4, "unit": "µM"}, {"measurement": "TGI", "setting": "TK-10 renal", "value": "> 100", "unit": "µM"}, {"measurement": "TGI", "setting": "HT29 colon", "value": 52.7, "unit": "µM"}, {"measurement": "TGI", "setting": "SK-OV-3 ovarian", "value": "> 100", "unit": "µM"}, {"measurement": "TGI", "setting": "SK-MEL-28 melanoma", "value": 49.7, "unit": "µM"}, {"measurement": "TGI", "setting": "NCI-H23 lung", "value": 94.3, "unit": "µM"}, {"measurement": "TGI", "setting": "UACC-257 melanoma", "value": 67.4, "unit": "µM"}, {"measurement": "TGI", "setting": "MOLT-4 leukemia", "value": 32.5, "unit": "µM"}, {"measurement": "TGI", "setting": "DU-145 prostate", "value": 49.6, "unit": "µM"}, {"measurement": "TGI", "setting": "K-562 leukemia", "value": 35.7, "unit": "µM"}, {"measurement": "TGI", "setting": "OVCAR-3 ovarian", "value": 42.9, "unit": "µM"}, {"measurement": "TGI", "setting": "SR leukemia", "value": 47, "unit": "µM"}]}
